Among the data in US20170298055A1, “sGC STIMULATORS” (IRONWOOD PHARMACEUTICALS, INC., priority 2014, published 2017) are EC50 values, retold here.

This assay concerns the target T1, soluble guanylate cyclase (sGC) (Homo sapiens, UniProt Q02108+Q02153).
T1 construct: endogenously expressing soluble guanylate cyclase (sGC); endogenous in cells; host or cells: HEK293
T1 sequence (Q02153 1-619): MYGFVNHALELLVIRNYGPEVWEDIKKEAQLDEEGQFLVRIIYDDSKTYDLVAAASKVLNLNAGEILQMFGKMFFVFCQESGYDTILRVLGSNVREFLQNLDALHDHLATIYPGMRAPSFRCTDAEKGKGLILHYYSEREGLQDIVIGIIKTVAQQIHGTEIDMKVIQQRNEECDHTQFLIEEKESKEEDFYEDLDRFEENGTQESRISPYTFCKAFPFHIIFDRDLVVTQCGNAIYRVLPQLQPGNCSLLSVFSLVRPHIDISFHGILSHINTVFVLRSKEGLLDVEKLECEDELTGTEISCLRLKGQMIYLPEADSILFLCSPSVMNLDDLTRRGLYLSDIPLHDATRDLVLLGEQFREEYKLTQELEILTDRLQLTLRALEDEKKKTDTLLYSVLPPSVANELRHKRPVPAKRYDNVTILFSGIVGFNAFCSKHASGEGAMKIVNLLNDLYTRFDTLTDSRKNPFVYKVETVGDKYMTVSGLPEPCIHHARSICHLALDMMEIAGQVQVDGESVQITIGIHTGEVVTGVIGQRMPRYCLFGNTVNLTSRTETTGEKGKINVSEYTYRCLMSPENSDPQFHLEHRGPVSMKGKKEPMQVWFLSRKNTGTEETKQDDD
T1 sequence (Q02108 1-690): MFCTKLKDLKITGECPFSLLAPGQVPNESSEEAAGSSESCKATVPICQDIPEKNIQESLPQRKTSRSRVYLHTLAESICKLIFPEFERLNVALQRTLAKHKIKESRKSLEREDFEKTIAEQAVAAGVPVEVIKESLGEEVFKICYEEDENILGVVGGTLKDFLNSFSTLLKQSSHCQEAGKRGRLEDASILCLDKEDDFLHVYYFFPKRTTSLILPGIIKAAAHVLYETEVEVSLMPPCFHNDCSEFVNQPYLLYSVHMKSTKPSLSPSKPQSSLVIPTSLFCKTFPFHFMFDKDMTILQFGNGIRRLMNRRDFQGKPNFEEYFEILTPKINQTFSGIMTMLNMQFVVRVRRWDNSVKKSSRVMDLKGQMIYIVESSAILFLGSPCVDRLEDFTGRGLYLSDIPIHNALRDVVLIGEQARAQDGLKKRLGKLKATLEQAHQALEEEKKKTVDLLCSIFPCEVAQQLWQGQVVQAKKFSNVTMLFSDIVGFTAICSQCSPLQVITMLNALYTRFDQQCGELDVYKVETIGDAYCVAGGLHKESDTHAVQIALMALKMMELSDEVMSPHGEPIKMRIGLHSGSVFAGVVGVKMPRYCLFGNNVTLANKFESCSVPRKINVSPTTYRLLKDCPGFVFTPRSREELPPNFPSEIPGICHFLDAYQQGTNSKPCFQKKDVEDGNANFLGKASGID
Nature of the assay: sGC-HEK-cGMP assay, LC/MS detection, updated conditions with DETA-NONOate (Example 2B). It is filed as cell-based. The following applies: read-out: sGC_HEK_LCMS EC50/IC50 Abs (Norm) (nM) Binned. The procedure: Human embryonic kidney cells (HEK293), endogenously expressing soluble guanylate cyclase (sGC), were used to evaluate the activity of test compounds. Compounds stimulating the sGC enzyme should cause an increase in the intracellular concentration of cGMP. HEK 293 cells were seeded in Dulbecco's Modification of Eagle's Medium supplemented with fetal bovine serum (10% final) and penicillin (100 U/mL)/streptomycin (100 μg/mL) in a 50 μL volume at a density of 1.5×10^4 cells/well in a poly-D-lysine coated 384 well flat bottom plate. Cells were incubated overnight at 37° C. in a humidified chamber with 5% CO2. Medium was aspirated and cells were washed with 1× Hank's Buffered Saline Salt Solution (50 μL). Cells were then incubated for 15 minutes at 37° C. with 50 μL of a 0.5 mM 3-isobutyl-1-methylxanthine (IBMX) solution. Test article and Diethylenetriamine NONOate (DETA-NONOate) solutions (x μM concentration for test article solution and 10 μM concentration for DETA-NONOate solution; wherein x is one of the following concentrations);
were then added to the assay mixture and the resulting mixture incubated at 37° C. for 20 minutes. […]
cGMP concentrations were determined from each sample using the LCMS conditions below (Table 2B) and calculated standard curve. […]

As for `OCCOc1nc(-c2cc(-c3ccon3)n(Cc3ccccc3F)n2)ncc1F` [Compound I-1], the EC50 is 100 to 1000 nM.

With `CN(C)CCOc1nc(-c2cc(-c3ccon3)n(Cc3ccccc3F)n2)ncc1F` [Compound I-2], the EC50 was over 1000 nM.
